{"source": "patent EP0777471B1", "about": "“INHIBITION OF LEUKOTRIENE BIOSYNTHESIS WITH UREA DERIVATIVES” (MINNESOTA MINING AND MANUFACTURING COMPANY, priority 1994, dated 1996)", "key": {"[1]": {"target": "T1, 5-lipoxygenase (Homo sapiens, UniProt P09917)", "T1 construct": "Whole human blood is collected by venipuncture into EDTA; endogenous in cells; host or cells: leukocytes isolated from whole human blood (dextran sedimentation, hypotonic lysis)", "T1 sequence (P09917 1-674)": "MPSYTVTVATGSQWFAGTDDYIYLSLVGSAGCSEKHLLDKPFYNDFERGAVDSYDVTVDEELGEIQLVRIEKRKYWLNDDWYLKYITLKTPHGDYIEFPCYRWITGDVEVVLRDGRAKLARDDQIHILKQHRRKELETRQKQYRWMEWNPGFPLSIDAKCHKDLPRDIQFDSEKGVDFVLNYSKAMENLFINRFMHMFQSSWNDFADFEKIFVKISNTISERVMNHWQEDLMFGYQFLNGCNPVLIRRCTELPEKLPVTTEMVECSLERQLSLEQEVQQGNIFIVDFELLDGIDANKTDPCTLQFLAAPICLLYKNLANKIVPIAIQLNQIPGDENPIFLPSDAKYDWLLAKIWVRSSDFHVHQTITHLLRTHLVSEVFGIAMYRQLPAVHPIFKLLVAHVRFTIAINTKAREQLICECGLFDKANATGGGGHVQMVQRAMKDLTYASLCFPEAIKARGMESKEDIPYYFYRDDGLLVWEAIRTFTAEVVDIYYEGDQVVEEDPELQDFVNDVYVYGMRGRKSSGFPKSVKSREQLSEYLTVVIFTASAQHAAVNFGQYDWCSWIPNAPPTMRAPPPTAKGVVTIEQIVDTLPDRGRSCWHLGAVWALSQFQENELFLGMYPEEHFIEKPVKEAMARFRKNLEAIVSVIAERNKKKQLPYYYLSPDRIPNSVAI", "test": "5-Lipoxygenase inhibition in human leukocytes (A23187-stimulated, LTC4 radioimmunoassay)", "format": "cell-based", "conditions": "human leukocytes, A23187 Calcium Ionophore, LTC4 formed; read-out: IC50", "protocol": "The test method described below measures the ability of compounds to inhibit 5-lipoxygenase activity in human leukocytes.\nWhole human blood is collected by venipuncture into EDTA (1.4 mL of 0.25M per 60 mL of whole blood). The red blood cells are sedimented with a 6% dextran/0.9% sodium chloride solution at a ratio of 25 mL whole blood to 15 mL dextran solution. The blood/dextran combination is mixed by inversion and the red blood cells are allowed to settle out for 45 minutes at ambient temperature. The plasma/dextran supernatant is removed then centrifuged at ambient temperature at 3000 rpm for 10 minutes. The plasma/dextran supernatant is removed and the cells are resuspended in 10 mL of the plasma/dextran solution. […] The pellet is then resuspended into Tris buffer containing 1 mM calcium chloride to provide approximately 1.0 X 10^7 cells/mL.\nCompounds are dissolved in dimethyl sulfoxide. […] Each concentration is tested in duplicate.\nA 15 µL portion of Tris buffer containing 1 mM calcium chloride is added to each well of a 96 well microtiter plate. A 1 µL portion of drug solution or vehicle (dimethyl sulfoxide) is added to each well followed by the addition of an 75 µL portion of the cell suspension. The plates are gently mixed then allowed to stand at ambient temperature for 10 minutes. A 10 µL portion of 30 µM A23187 Calcium Ionophore (prepared by dissolving the ionophore in DMSO and then diluting 1:80 into the Tris buffer) is added to each well except the wells that contain the blanks (The blank wells measure the level of LTC4 production in the absence of A23187.). The plates are gently mixed then incubated at 37°C for 10 minutes.\nFollowing incubation the plates are centrifuged at 2000 rpm for 1.5 minutes and the supernatant is removed as quickly as possible to stop the reaction. The supernatants are frozen at -20°C until they are assayed.\nThe supernatants are assayed for the presence of Leukotriene C4 by radioimmunoassay which is performed according to the manufacturer's (Advanced Magnetics; Cambridge, MA) instructions."}, "[2]": {"test_system": "production of Leukotriene C4 in mouse peritoneal macrophages", "test": "In vitro mouse peritoneal macrophage Leukotriene C4 inhibition (zymosan-stimulated, LTC4 radioimmunoassay)", "format": "cell-based", "conditions": "Zymosan 50 µg/mL", "procedure,_shortened": "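Adherent peritoneal macrophages from female CD-1 mice were preincubated 15 minutes at 37°C with compound (10, 1 and 0.1 µM, duplicate; DMSO). They were then stimulated with 50 µg/mL zymosan for 1 to 2 hours. Leukotriene C4 released into the medium was measured by radioimmunoassay.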"}, "[3]": {"test_system": "production of Leukotriene B4", "test": "Rat ex vivo Leukotriene B4 inhibition (oral dosing, blood challenged with A23187)", "format": "in vivo, Rats", "conditions": "two hours post dose", "procedure,_shortened": "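Male CD rats (250 g, non-fasted) dosed orally with compound in PEG 400, 5 rats/group; blood drawn by cardiac puncture before and 2 h after dosing. Heparinized blood challenged with A23187 calcium ionophore, 30 min at 37°C; plasma LTB4 measured by radioimmunoassay. % inhibition = post-dose vs pre-dose LTB4 level.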"}}, "data": [{"smiles": "CSc1cccc(NC(=O)NO)c1", "note": "[Compound 34, 1-hydroxy-3-[3-(methylthio)phenyl]urea]", "values": [{"measurement": "IC50", "setting": "[1]", "result": 460, "unit": "nM"}, {"measurement": "IC50", "setting": "[2]", "result": "> 10000", "unit": "nM"}, {"measurement": "%I", "setting": "[3]; 25 mg/Kg", "result": -2.9, "unit": "%"}]}, {"smiles": "CCN(O)C(=O)Nc1ccccc1", "note": "[Compound 43, 1-ethyl-1-hydroxy-3-phenylurea]", "values": [{"measurement": "IC50", "setting": "[1]", "result": 30, "unit": "nM"}, {"measurement": "IC50", "setting": "[2]", "result": 900, "unit": "nM"}, {"measurement": "%I", "setting": "[3]; 20 mg/Kg", "result": 12, "unit": "%"}, {"measurement": "%I", "setting": "[3]; 50 mg/Kg", "result": 16, "unit": "%"}]}]}
